Converted amounts (≈) assume the structure as drawn. Positions of bridges follow the written chain, without caps; N, C: chain ends. Residues, ends and D or L forms follow the SMILES beside them.
B1: PD97.1.1: SEQ ID NO: 608 with N-terminal alanine; Rubus chingii wild-type defensin, expressed in Pichia pastoris (protein, listed as Rubus chingii)
chain: GACPLVSKRSKTWSGFCGSSNNCNKQCRSWESAQHGACHNTYKTVLGVKVISGRACFCYFCKKHT
modifications: N-terminal alanine added
notes: Rubus chingii wild-type defensin, expressed in Pichia pastoris
B2: PD127.1.1: SEQ ID NO: 732 with N-terminal alanine; wild-type defensin-like protein, expressed in Pichia pastoris (protein, listed as Potentilla micrantha)
chain: GACPLVQKRSKTWSGFCGSSNNCDKQCRTWEKAKHGACHATGDLKGTPRLKLRSCHARRSKDH
modifications: N-terminal alanine added
notes: wild-type defensin-like protein, expressed in Pichia pastoris
B3: PD91.1.1: SEQ ID NO: 578 with N-terminal alanine; Setaria viridis wild-type defensin, expressed in Pichia pastoris (protein, listed as Setaria viridis)
chain: AYMCTTQNRFFHGRCVNNLNCASSCVHGRLGTGGHCATRKRSAADPGVDIDWVWNRRICVCVFQC
modifications: N-terminal alanine added
notes: Setaria viridis wild-type defensin, expressed in Pichia pastoris

Experiments:
[1] = test system: Fusarium graminearum PH-1; format: cell-based; details: for F. graminearum PH-1 MIC Day 1: Fusarium graminearum PH-1, 96-well, resazurin viability; for MIC against F. graminearum: F. graminearum PH-1, Example 7
[2] = test system: Botrytis cinerea T-4; details: Table 18

Molecule | F. graminearum PH-1 MIC Day 1 [1] [µM] | further results
PD82.1.1: SEQ ID NO: 538 with N-terminal alanine; Pinus sylvestris wild-type defensin, expressed in Pichia pastoris (RTCLSKSHRFHGYCVRSSSCKEICQTERFLSGECRHTHLGNRRCFCEKPC; N-terminal alanine added; listed as Pinus sylvestris) | 1.5 | –
PD87.1.1: SEQ ID NO: 560 with N-terminal alanine; Raphanus sativus wild-type defensin, expressed in Pichia pastoris (KLCQRPSGTWSGVCGNNNACKNQCIRLEKARHGSCNYVFPAHKCICYFPC; N-terminal alanine added; listed as Raphanus sativus) | 0.75 | MIC against F. graminearum [1]: 0.75 µM
PD86.1.1: SEQ ID NO: 555 with N-terminal alanine; Eryanthe guttata wild-type defensin, expressed in Pichia pastoris (SLCETPSRYFNGICFSRRNCGAICEKEGFSSGRCKAFKCVCGKDC; N-terminal alanine added; listed as Eryanthe guttata) | 6 | –
PD120.1.1: SEQ ID NO: 706 with N-terminal alanine; Setaria italica wild-type defensin, expressed in Pichia pastoris (DRCETHSRTYKGRCNNHNCWSICITEGNTGGFCKGTLLLKCMCTSEC; N-terminal alanine added; listed as Setaria italica) | 12 | –
CC[C@H](C)[C@@H]1NC(=O)[C@H](CCCNC(=N)N)NC(=O)[C@@H](NC(=O)[C@H](CCCNC(=N)N)NC(=O)CNC(=O)[C@@H](N)CO)CSSC[C@@H](C(N)=O)NC(=O)[C@H](CC(N)=O)NC(=O)[C@H](CCCCN)NC(=O)[C@H]([C@@H](C)O)NC(=O)[C@H](Cc2ccccc2)NC(=O)[C@H](Cc2ccc(O)cc2)NC(=O)[C@H](Cc2c[nH]c3ccccc23)NC(=O)[C@H](CCCNC(=N)N)NC(=O)[C@H](Cc2ccccc2)NC(=O)[C@H](CC(C)C)NC1=O [GMA1C_V3] (H-SGRCRILFRWYFTKNC-NH2; disulfide 4-16; N-terminus assumed) | – | MIC (μM) SFM ([2]; SFM): 1.5 µM (≈ 3.07 µg/mL); MIC (μM) (SFM + 2 mM CaCl2) [2]: 6 µM; MIC (μM) (SFM + 100 mM KCl) [2]: >12 µM; MIC (μM) (SFM + 100 mM NaCl) [2]: 3 µM
PD128.1.1: SEQ ID NO: 734 with N-terminal alanine; wild-type defensin-like protein, expressed in Pichia pastoris (RVCLRRSKTWTGFCGNTRGFDSQCKRWECALHGACHC; N-terminal alanine added; listed as Lepidium sativum) | >12 | –
PD124.1.1: SEQ ID NO: 723 with N-terminal alanine; Rubus argutus wild-type defensin, expressed in Pichia pastoris (RICEVPSKTFIGLCFKDTNCIVRCRSEGYGYGKCSHFRRRCRCFKPCP; N-terminal alanine added; listed as Rubus argutus) | 2 | –
PD121.1.1: SEQ ID NO: 711 with N-terminal alanine; Setaria italica wild-type defensin, expressed in Pichia pastoris (RHCLSQSHHFKGLCLSSSNCANVCRVERFPDGECQTTAGTRKCFCKRIC; N-terminal alanine added; listed as Setaria italica) | 1.5 | –
PD99.1.1: SEQ ID NO: 616 with N-terminal alanine; Theobroma cacao wild-type defensin, expressed in Pichia pastoris (KLCQKRSKTWTGPCIKTKNCDHQCRKWEKAQHGACHWQWPGFACFCYVNC; N-terminal alanine added; Theobroma cacao) | 0.75 | MIC against F. graminearum [1]: 0.75 µM
PD123.1.1: SEQ ID NO: 719 with N-terminal alanine; Striga asiatica wild-type defensin, expressed in Pichia pastoris (RKCESKSQQFKGLCFIKANCAAVCRTEGFHSGHCRGFRRRCYCTKHC; N-terminal alanine added; listed as Striga asiatica) | 6 | –
PD88.1.1: SEQ ID NO: 565 with N-terminal alanine; Fraxinus excelsior wild-type defensin, expressed in Pichia pastoris (KHCAKLSKGWHGFCAPHKCSRYCIHHEGAYDGACLKHHHSKHIGCYCYYRHC; N-terminal alanine added; Fraxinus excelsior) | >12 | –
PD89.1.2: SEQ ID NO: 569 with N-terminal alanine; Crambe maritima wild-type defensin, expressed in Pichia pastoris (KLCRKPSGTWSGLCANSDSCRKQCINLEKAKDGSCKYKFPAHKCFCYY; N-terminal alanine added; listed as Crambe maritima) | 12 | –
PD94.1.1: SEQ ID NO: 593 with N-terminal alanine; Solanum lycopersicum wild-type defensin, expressed in Pichia pastoris (KLCQYHSETFHGVCVTGNNCNRHCQRENFEGGRCHGIRHYRCVCYRTC; N-terminal alanine added; listed as Solanum lycopersicum) | >12 | –
PD95.1.1: SEQ ID NO: 598 with N-terminal alanine; Mimulus guttatus wild-type defensin, expressed in Pichia pastoris (RHCESPSHRFKGICVRKSNCAAICQTEGFSSGKCRGFRSRCVCIKHC; N-terminal alanine added; listed as Mimulus guttatus) | 0.75 | MIC against F. graminearum [1]: 0.75 µM
PD85.1.1: SEQ ID NO: 551 with N-terminal alanine; Panax ginseng wild-type defensin, expressed in Pichia pastoris (KLCEKASLTWSGKCGNTQNCDKQCQNWESAKHGACHKRPTWKCFCYSDC; N-terminal alanine added; Panax ginseng) | >12 | –
PD84.1.1: SEQ ID NO: 546 with N-terminal alanine; Striga asiatica wild-type defensin, expressed in Pichia pastoris (KICEYKSERFWGVCLSDIKCADVCKDESFESGDCQGLRRRCMCYNHC; N-terminal alanine added; listed as Striga asiatica) | >12 | –
PD125.1.1: SEQ ID NO: 728 with N-terminal alanine; wild-type defensin-like protein, expressed in Pichia pastoris (VICPLESKRSKTWSGVCAQSKNCDKQCKTWERAKHGACHATYGKVLGVKACMHAGNK; N-terminal alanine added; listed as Prunus armeniaca) | 8 | –
PD93.1.1: SEQ ID NO: 588 with N-terminal alanine; Fragaria vesca wild-type defensin, expressed in Pichia pastoris (KICEVPSKTFKGLCVKDRNCVVRCHSEGYGNGKCSHVRRQCMCLKICD; N-terminal alanine added; listed as Fragaria vesca) | >12 | –
PD96.1.1: SEQ ID NO: 603 with N-terminal alanine; Thlaspi arvense wild-type defensin, expressed in Pichia pastoris (RMCESKSHEFKGFCTKWRICRDVCITEGFTDGGCHGVLRHCVCKKPCLLSN; N-terminal alanine added; Thlaspi arvense) | 0.75 | MIC against F. graminearum [1]: 0.75 µM
PD126.1.1: SEQ ID NO: 730 with N-terminal alanine; wild-type defensin-like protein, expressed in Pichia pastoris (KLCERRSKTWTGWCAKTSHCNKQCKDWERVEHGACHGEFLEKPVSAISNAHCKISF; N-terminal alanine added; listed as Prunus armeniaca) | >12 | –
PD92.1.1: SEQ ID NO: 583 with N-terminal alanine; Trifolium pratense wild-type defensin, expressed in Pichia pastoris (RKCESKRRWIYGNCLSDEKCASDCLVKGFLFGKCRGYDNRCYCKKPRC; N-terminal alanine added; Trifolium pratense) | 3 | –
PD83.1.1: SEQ ID NO: 542 with N-terminal alanine; Eucalyptus grandis wild-type defensin, expressed in Pichia pastoris (RMCESQSHKFHGLCMSDRTCVVVCKEEDFDDGKCRGFRHRCFCRKPC; N-terminal alanine added; listed as Eucalyptus grandis) | >12 | –
B1 | 1.5 | –
B2 | >12 | –
B3 | >12 | –
